In US8236808B2, “Pyrazine derivatives as ENAC blockers” (Novartis AG, priority 2008, dated 2012) one finds IC50 data, which are given here for eleven compounds.

The term IC50 denotes the concentration that gives 50% inhibition. A high value points to weaker potency.

Where a name gives a salt, the structure may show the parent alone.

In this experiment the target is T1, epithelial sodium channel (ENaC) (Homo sapiens, UniProt P37088+P51168+P51170).
T1 construct: host or cells: primary human bronchial epithelial cells (HBECs), differentiated at the air-liquid interface
T1 sequence (P37088 1-669): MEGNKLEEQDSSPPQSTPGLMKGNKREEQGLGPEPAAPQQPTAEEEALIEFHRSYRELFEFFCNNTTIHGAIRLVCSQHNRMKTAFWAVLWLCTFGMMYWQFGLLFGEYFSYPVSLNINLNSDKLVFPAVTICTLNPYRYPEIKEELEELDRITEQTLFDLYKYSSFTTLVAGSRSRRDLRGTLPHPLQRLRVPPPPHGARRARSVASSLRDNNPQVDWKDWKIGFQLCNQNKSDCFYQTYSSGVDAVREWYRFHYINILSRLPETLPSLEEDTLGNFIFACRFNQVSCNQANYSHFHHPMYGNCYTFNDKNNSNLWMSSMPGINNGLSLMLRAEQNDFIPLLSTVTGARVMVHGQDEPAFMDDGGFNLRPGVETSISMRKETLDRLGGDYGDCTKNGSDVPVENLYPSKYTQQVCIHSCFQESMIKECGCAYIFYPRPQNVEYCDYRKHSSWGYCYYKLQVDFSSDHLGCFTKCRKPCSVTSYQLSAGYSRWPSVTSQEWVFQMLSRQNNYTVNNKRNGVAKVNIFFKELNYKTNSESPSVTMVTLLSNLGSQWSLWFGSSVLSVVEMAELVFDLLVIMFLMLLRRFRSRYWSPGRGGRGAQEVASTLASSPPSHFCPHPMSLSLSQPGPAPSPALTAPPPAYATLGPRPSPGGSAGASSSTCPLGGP
T1 sequence (P51168 1-640): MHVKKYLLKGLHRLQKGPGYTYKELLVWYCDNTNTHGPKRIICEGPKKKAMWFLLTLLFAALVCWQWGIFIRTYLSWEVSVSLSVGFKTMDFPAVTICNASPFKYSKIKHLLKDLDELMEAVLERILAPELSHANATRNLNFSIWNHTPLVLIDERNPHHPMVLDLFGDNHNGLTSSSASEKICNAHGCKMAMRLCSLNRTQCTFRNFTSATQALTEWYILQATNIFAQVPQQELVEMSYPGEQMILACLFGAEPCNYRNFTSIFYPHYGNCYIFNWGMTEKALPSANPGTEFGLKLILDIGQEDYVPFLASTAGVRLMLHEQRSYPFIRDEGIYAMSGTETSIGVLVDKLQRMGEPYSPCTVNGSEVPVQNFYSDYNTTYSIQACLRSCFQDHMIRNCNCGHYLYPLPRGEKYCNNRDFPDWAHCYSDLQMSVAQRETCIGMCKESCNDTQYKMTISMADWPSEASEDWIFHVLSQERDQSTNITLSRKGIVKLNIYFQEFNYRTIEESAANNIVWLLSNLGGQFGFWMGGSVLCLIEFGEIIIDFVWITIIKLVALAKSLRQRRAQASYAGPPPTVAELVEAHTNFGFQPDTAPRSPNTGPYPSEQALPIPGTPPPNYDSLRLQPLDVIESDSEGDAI
T1 sequence (P51170 1-649): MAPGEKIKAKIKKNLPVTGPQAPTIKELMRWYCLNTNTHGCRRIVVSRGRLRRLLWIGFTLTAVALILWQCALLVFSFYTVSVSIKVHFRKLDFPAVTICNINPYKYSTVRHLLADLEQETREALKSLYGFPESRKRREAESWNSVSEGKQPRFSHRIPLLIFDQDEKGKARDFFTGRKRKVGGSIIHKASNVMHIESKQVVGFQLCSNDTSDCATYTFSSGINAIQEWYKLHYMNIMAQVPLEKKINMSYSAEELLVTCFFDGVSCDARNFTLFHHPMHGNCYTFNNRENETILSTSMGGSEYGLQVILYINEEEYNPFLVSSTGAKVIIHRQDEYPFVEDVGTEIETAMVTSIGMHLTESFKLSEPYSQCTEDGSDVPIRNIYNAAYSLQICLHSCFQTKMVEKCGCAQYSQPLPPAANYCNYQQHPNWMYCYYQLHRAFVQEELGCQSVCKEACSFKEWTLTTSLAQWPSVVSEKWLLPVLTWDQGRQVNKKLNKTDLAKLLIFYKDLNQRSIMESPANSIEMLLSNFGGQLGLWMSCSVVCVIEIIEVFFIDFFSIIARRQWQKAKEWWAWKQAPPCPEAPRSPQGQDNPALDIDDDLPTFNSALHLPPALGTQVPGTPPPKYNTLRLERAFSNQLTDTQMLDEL
As to the kind of experiment: Short circuit current (ISC) measurements in human bronchial epithelial cells, inhibition of amiloride-sensitive ISC. The class given is cell-based. The following applies: inhibition of the amiloride-sensitive ISC; HBECs cultured at air-liquid interface, Ussing chamber, compound added to apical chamber. The procedure:
Compounds of formula (I), hereinafter referred to alternatively as “agents of the invention”, are useful as pharmaceuticals. In particular, the compounds have good ENaC blocker activity and may be tested in the following assays.
Human Bronchial Epithelial cells (HBECs) (Cambrex) were cultured under air-liquid interface conditions to provide a well differentiated mucociliary phenotype.
HBECs were cultured using a modification of the method described by Gray and colleagues (Gray et al., 1996). Cells were seeded in plastic T-162 flasks and were grown in bronchial epithelial cell growth medium (BEGM; Cambrex) supplemented with bovine pituitary extract (52 μg/mL), hydrocortisone (0.5 μg/mL), human recombinant epidermal growth factor (0.5 ng/mL), epinephrine (0.5 μg/mL), transferrin (10 μg/mL), insulin (5 μg/mL), retinoic acid (0.1 μg/mL), triiodothyronine ([…]), gentamycin (50 μg/mL) and amphotericin B (50 ng/mL). Medium was changed every 48 hours until cells were 90% confluent. Cells were then passaged and seeded (8.25×10^5 cells/insert) on polycarbonate Snapwell inserts (Costar) in differentiation media containing 50% DMEM in BEGM with the same supplements as above but without triiodothyronine and a final retinoic acid concentration of 50 nM (all-trans retinoic acid). Cells were maintained submerged for the first 7 days in culture, after which time they were exposed to an apical air interface for the remainder of the culture period. At this time, media was changed to DMEM:F12 media containing 2% v/v Ultroser G for the remainder of culture. Amphotericin B was removed from all media 3 feeds prior to use in the Ussing Chambers. Cells were used between days 7 and 21 after establishment of the apical-air interface. At all stages of culture, cells were maintained at 37° C. in 5% CO2 in an air incubator.
Snapwell inserts were mounted in Vertical Diffusion Chambers (Costar) and were bathed with continuously gassed Ringer solution (5% CO2 in O2; pH 7.4) maintained at 37° C. containing (in mM): 120 NaCl, 25 NaHCO3, 3.3 KH2PO4, 0.8 K2HPO4, 1.2 CaCl2, 1.2 MgCl2, and 10 glucose. The solution osmolarity was between 280 and 300 mOsmol/kg H2O for all physiological salt solutions used. Cells were voltage clamped to 0 mV (model EVC4000; WPI). RT was measured by applying a 1- or 2-mV pulse at 30-s intervals and calculating RT by Ohm's law. Data were recorded using a PowerLab workstation (ADInstruments).
Test compounds were prepared as a 10 mM stock solution in DMSO (95%). Serial 3-fold dilutions were freshly prepared in an appropriate vehicle (distilled H2O or Ringers solution). The initial concentration was added to the apical chamber as a 1000× concentrate in 5 μL, resulting in a final 1× concentration the 5 mL volume of the Ussing chamber. Subsequent additions of compound were added in a 3.3 μL volume of the 1000× serially diluted stock solution. At the completion of the concentration-response experiment, amiloride (10 μM) was added into the apical chamber to enable the total amiloride-sensitive current to be measured. An amiloride control IC50 was established at the start of each experiment.
Results are expressed as the mean % inhibition of the amiloride-sensitive ISC. Concentration-response curves were plotted and IC50 values generated using GraphPad Prism 3.02. Cell inserts were typically run in duplicate and the IC50 calculated on the mean % inhibition data.
As to `C[N+](C)(CCCCNC(=O)CCc1ccc(Cl)cc1)CCNC(=O)c1nc(Cl)c(N)nc1N` [Example 65, {4-[3-(4-Chloro-phenyl)-propionylamino]-butyl}-{2-[(3,5-diamino-6-chloro-pyrazine-2-carbonyl)-amino]-ethyl}-dimethyl-ammonium hexafluorophosphate], the IC50 came out at 150 nM. This counts as sub-micromolar. For the compound `C[N+](C)(CCCCCNC(=O)Cc1ccc(OCc2ccccc2)cc1)CCNC(=O)c1nc(Cl)c(N)nc1N` [Example 78, {5-[2-(4-Benzyloxy-phenyl)-acetylamino]-pentyl}-{2-[(3,5-diamino-6-chloro-pyrazine-2-carbonyl)-amino]-ethyl}-dimethyl-ammonium bromide], inhibition was half-maximal at 62 nM (IC50). As for `C[N+](C)(CCCCCNS(=O)(=O)c1ccc(Cl)cc1)CCNC(=O)c1nc(Cl)c(N)nc1N` [Example 94, [5-(4-Chloro-benzenesulfonylamino)-pentyl]-{2-[(3,5-diamino-6-chloro-pyrazine-2-carbonyl)-amino]-ethyl}-dimethyl-ammonium bromide], the figure is 250 nM; as for `C[N+](C)(CCCCNS(=O)(=O)c1ccc(Cl)cc1)CCNC(=O)c1nc(Cl)c(N)nc1N` [Example 100, [4-(4-Chloro-benzenesulfonylamino)-butyl]-{2-[(3,5-diamino-6-chloro-pyrazine-2-carbonyl)-amino]-ethyl}-dimethyl-ammonium bromide], 290 nM. Consider `C[N+](C)(CCNC(=O)c1nc(Cl)c(N)nc1N)CCNS(=O)(=O)Cc1ccc(Cl)cc1` [Example 108, [2-(4-Chloro-phenylmethanesulfonylamino)-ethyl]-{2-[(3,5-diamino-6-chloro-pyrazine-2-carbonyl)-amino]-ethyl}-dimethyl-ammonium bromide], for which the IC50 turned out to be 540 nM.

In turn, `CCC[C@@H](CNC(=O)c1nc(Cl)c(N)nc1N)[N+](C)(C)CCCc1ccc(OC)cc1` [Example 120, ((S)-1-{[(3,5-Diamino-6-chloro-pyrazine-2-carbonyl)-amino]-methyl}-butyl)-[3-(4-methoxy-phenyl)-propyl]-dimethyl-ammonium trifluoroacetate] had an IC50 of 4 nM. As for `CCC[C@@H](CNC(=O)c1nc(Cl)c(N)nc1N)[N+](C)(C)CCCc1ccc(O)cc1` [Example 121, ((S)-1-{[(3,5-Diamino-6-chloro-pyrazine-2-carbonyl)-amino]-methyl}-butyl)-[3-(4-hydroxy-phenyl)-propyl]-dimethyl-ammonium trifluoroacetate], the figure is 10 nM; as for `C[N+](CCCc1ccc(O)cc1)(CCCc1ccc(O)cc1)CCNC(=O)c1nc(Cl)c(N)nc1N` [Example 122, {2-[(3,5-Diamino-6-chloro-pyrazine-2-carbonyl)-amino]-ethyl}-bis-[3-(4-hydroxy-phenyl)-propyl]-methyl-ammonium trifluoroacetate], 130 nM. The compound `CCC[C@@H](CNC(=O)c1nc(Cl)c(N)nc1N)[N+](C)(C)CCCc1ccc(OC[C@@H](O)CO)cc1` [Example 124, ((S)-1-{[(3,5-Diamino-6-chloro-pyrazine-2-carbonyl)-amino]-methyl}-butyl)-{3-[4-((S)-2,3-dihydroxy-propoxy)-phenyl]-propyl}-dimethyl-ammonium trifluoroacetate] returned an IC50 of 25 nM. For `C[N+](CCCc1ccc(OCC(O)CO)cc1)(CCCc1ccc(OCC(O)CO)cc1)CCNC(=O)c1nc(Cl)c(N)nc1N` (centres unmarked) [Example 125, {2-[(3,5-Diamino-6-chloro-pyrazine-2-carbonyl)-amino]-ethyl}-bis-{3-[4-(2,3-dihydroxy-propoxy)-phenyl]-propyl}-methyl-ammonium trifluoroacetate], the IC50 amounted to 240 nM. Compound `C[N+](C)(CCCc1ccc(OCC(O)CO)cc1)CCNC(=O)c1nc(Cl)c(N)nc1N` (centres unmarked) [Example 126, {2-[(3,5-Diamino-6-chloro-pyrazine-2-carbonyl)-amino]-ethyl}-{3-[4-(2,3-dihydroxy-propoxy)-phenyl]-propyl-dimethyl-ammonium trifluoroacetate] returned an IC50 of 2270 nM. Compared with the last compound, the IC50 is about 9.5-fold higher.
